Test results taken from PubChem BioAssay (NCI).
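Where inhibition never reached the appropriate level, the endpoint shown equals the highest concentration tested. Otherwise, values were interpolated linearly from a five-concentration, 48-hour dose response in 96-well plates. Definition used: TGI = concentration required for complete inhibition of growth.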

Tests used:
Test in all cases: growth of human tumour cells (NCI), 48 h
M14 melanoma = test system: M14 melanoma
DMS 114 small cell lung = test system: DMS 114 small cell lung
CAKI-1 renal = test system: CAKI-1 renal
HCT-15 colon = test system: HCT-15 colon
HL-60(TB) leukemia = test system: HL-60(TB) leukemia
HCC-2998 colon = test system: HCC-2998 colon
RPMI-8226 leukemia = test system: RPMI-8226 leukemia
RXF 393 renal = test system: RXF 393 renal
OVCAR-4 ovarian = test system: OVCAR-4 ovarian
COLO 205 colon = test system: COLO 205 colon
HT29 colon = test system: HT29 colon
KM12 colon = test system: KM12 colon
SNB-75 CNS = test system: SNB-75 CNS
A549 NSCLC = test system: A549 NSCLC
NCI-H522 lung = test system: NCI-H522 lung
SF-268 CNS = test system: SF-268 CNS
NCI-H23 lung = test system: NCI-H23 lung
SNB-78 CNS = test system: SNB-78 CNS
786-0 renal = test system: 786-0 renal
HOP-92 NSCLC = test system: HOP-92 NSCLC
ACHN renal = test system: ACHN renal
UO-31 renal = test system: UO-31 renal
SK-MEL-2 melanoma = test system: SK-MEL-2 melanoma
A498 renal = test system: A498 renal
LXFL 529 NSCLC = test system: LXFL 529 NSCLC
EKVX NSCLC = test system: EKVX NSCLC
NCI-H460 lung = test system: NCI-H460 lung
U251 CNS = test system: U251 CNS
SN12C renal = test system: SN12C renal
SF-539 CNS = test system: SF-539 CNS
KM20L2 colon = test system: KM20L2 colon
RXF-631 renal = test system: RXF-631 renal
DLD-1 colon = test system: DLD-1 colon
SNB-19 CNS = test system: SNB-19 CNS
DMS 273 small cell lung = test system: DMS 273 small cell lung
UACC-257 melanoma = test system: UACC-257 melanoma
HCT-116 colon = test system: HCT-116 colon
NCI-H226 lung = test system: NCI-H226 lung
CCRF-CEM leukemia = test system: CCRF-CEM leukemia
MALME-3M melanoma = test system: MALME-3M melanoma
SK-MEL-5 melanoma = test system: SK-MEL-5 melanoma
OVCAR-5 ovarian = test system: OVCAR-5 ovarian
OVCAR-8 ovarian = test system: OVCAR-8 ovarian
UACC-62 melanoma = test system: UACC-62 melanoma
M19-MEL melanoma = test system: M19-MEL melanoma
IGROV1 ovarian = test system: IGROV1 ovarian
SW-620 colon = test system: SW-620 colon
LOX IMVI melanoma = test system: LOX IMVI melanoma
SK-OV-3 ovarian = test system: SK-OV-3 ovarian
HOP-62 NSCLC = test system: HOP-62 NSCLC
SF-295 CNS = test system: SF-295 CNS
OVCAR-3 ovarian = test system: OVCAR-3 ovarian
XF 498 CNS = test system: XF 498 CNS
TK-10 renal = test system: TK-10 renal
K-562 leukemia = test system: K-562 leukemia
HOP-18 NSCLC = test system: HOP-18 NSCLC
SK-MEL-28 melanoma = test system: SK-MEL-28 melanoma
MOLT-4 leukemia = test system: MOLT-4 leukemia

Compound `O=C(Cc1nc2ccccc2o1)C(=O)Nc1ccccc1C(F)(F)F` has a TGI (M14 melanoma) of over 100 µM, a TGI (DMS 114 small cell lung) of over 100 µM and a TGI (CAKI-1 renal) of over 100 µM. It also gave a TGI (HCT-15 colon) of over 100 µM, a TGI (HL-60(TB) leukemia) of over 100 µM and a TGI (HCC-2998 colon) of over 100 µM. It also gave a TGI (RPMI-8226 leukemia) of over 100 µM, a TGI (RXF 393 renal) of over 100 µM and a TGI (OVCAR-4 ovarian) of over 100 µM. It also gave a TGI (COLO 205 colon) of over 100 µM, a TGI (HT29 colon) of over 100 µM and a TGI (KM12 colon) of over 100 µM. It also gave a TGI (SNB-75 CNS) of over 100 µM, a TGI (A549 NSCLC) of over 100 µM and a TGI (NCI-H522 lung) of over 100 µM. The TGI (SF-268 CNS) was over 100 µM, the TGI (NCI-H23 lung) was over 100 µM and the TGI (SNB-78 CNS) was over 100 µM. It also gave a TGI (786-0 renal) of over 100 µM, a TGI (HOP-92 NSCLC) of over 100 µM and a TGI (ACHN renal) of over 100 µM. For the same compound, the TGI (UO-31 renal) was over 100 µM, the TGI (SK-MEL-2 melanoma) was over 100 µM and the TGI (A498 renal) was over 100 µM. The TGI (LXFL 529 NSCLC) was over 100 µM, the TGI (EKVX NSCLC) was over 100 µM and the TGI (NCI-H460 lung) was over 100 µM. It also gave a TGI (U251 CNS) of over 100 µM, a TGI (SN12C renal) of over 100 µM and a TGI (SF-539 CNS) of over 100 µM. For the same compound, the TGI (KM20L2 colon) was over 100 µM, the TGI (RXF-631 renal) was over 100 µM and the TGI (DLD-1 colon) was over 100 µM. For the same compound, the TGI (SNB-19 CNS) was over 100 µM, the TGI (DMS 273 small cell lung) was over 100 µM and the TGI (UACC-257 melanoma) was over 100 µM. The TGI (HCT-116 colon) was over 100 µM, the TGI (NCI-H226 lung) was over 100 µM and the TGI (CCRF-CEM leukemia) was over 100 µM. It also gave a TGI (MALME-3M melanoma) of over 100 µM, a TGI (SK-MEL-5 melanoma) of over 100 µM and a TGI (OVCAR-5 ovarian) of over 100 µM. The TGI (OVCAR-8 ovarian) was over 100 µM, the TGI (UACC-62 melanoma) was over 100 µM and the TGI (M19-MEL melanoma) was over 100 µM. It also gave a TGI (IGROV1 ovarian) of over 100 µM, a TGI (SW-620 colon) of over 100 µM and a TGI (LOX IMVI melanoma) of over 100 µM. It also gave a TGI (SK-OV-3 ovarian) of over 100 µM, a TGI (HOP-62 NSCLC) of over 100 µM and a TGI (SF-295 CNS) of over 100 µM. It also gave a TGI (OVCAR-3 ovarian) of over 100 µM, a TGI (XF 498 CNS) of over 100 µM and a TGI (TK-10 renal) of over 100 µM. It also gave a TGI (K-562 leukemia) of over 100 µM.
Compound `O=C(CCc1n[nH]c(=S)o1)Nc1ccc(Cl)cc1Cl` has a TGI (M14 melanoma) of over 100 µM, a TGI (DMS 114 small cell lung) of over 100 µM and a TGI (CAKI-1 renal) of over 100 µM. For the same compound, the TGI (HCT-15 colon) was 46.1 µM, the TGI (HL-60(TB) leukemia) was over 100 µM and the TGI (HCC-2998 colon) was over 100 µM. It also gave a TGI (RPMI-8226 leukemia) of 44.4 µM, a TGI (OVCAR-4 ovarian) of over 100 µM and a TGI (COLO 205 colon) of over 100 µM. The TGI (HT29 colon) was over 100 µM, the TGI (HOP-18 NSCLC) was over 100 µM and the TGI (KM12 colon) was over 100 µM. The TGI (SNB-75 CNS) was over 100 µM, the TGI (A549 NSCLC) was over 100 µM and the TGI (NCI-H522 lung) was over 100 µM. For the same compound, the TGI (SF-268 CNS) was over 100 µM, the TGI (NCI-H23 lung) was over 100 µM and the TGI (SNB-78 CNS) was over 100 µM. It also gave a TGI (786-0 renal) of over 100 µM, a TGI (HOP-92 NSCLC) of over 100 µM and a TGI (ACHN renal) of over 100 µM. The TGI (UO-31 renal) was over 100 µM, the TGI (A498 renal) was over 100 µM and the TGI (LXFL 529 NSCLC) was over 100 µM. For the same compound, the TGI (EKVX NSCLC) was over 100 µM, the TGI (NCI-H460 lung) was over 100 µM and the TGI (SK-MEL-28 melanoma) was over 100 µM. It also gave a TGI (U251 CNS) of over 100 µM, a TGI (SN12C renal) of over 100 µM and a TGI (SF-539 CNS) of over 100 µM. It also gave a TGI (KM20L2 colon) of over 100 µM, a TGI (RXF-631 renal) of over 100 µM and a TGI (DLD-1 colon) of over 100 µM. For the same compound, the TGI (SNB-19 CNS) was over 100 µM, the TGI (DMS 273 small cell lung) was over 100 µM and the TGI (UACC-257 melanoma) was over 100 µM. The TGI (HCT-116 colon) was over 100 µM, the TGI (NCI-H226 lung) was over 100 µM and the TGI (CCRF-CEM leukemia) was over 100 µM. It also gave a TGI (MALME-3M melanoma) of over 100 µM, a TGI (SK-MEL-5 melanoma) of over 100 µM and a TGI (OVCAR-5 ovarian) of over 100 µM. For the same compound, the TGI (OVCAR-8 ovarian) was over 100 µM, the TGI (UACC-62 melanoma) was over 100 µM and the TGI (M19-MEL melanoma) was over 100 µM. It also gave a TGI (IGROV1 ovarian) of over 100 µM, a TGI (SW-620 colon) of 29.9 µM and a TGI (SK-OV-3 ovarian) of over 100 µM. It also gave a TGI (MOLT-4 leukemia) of over 100 µM, a TGI (HOP-62 NSCLC) of over 100 µM and a TGI (SF-295 CNS) of over 100 µM. For the same compound, the TGI (OVCAR-3 ovarian) was over 100 µM, the TGI (TK-10 renal) was over 100 µM and the TGI (K-562 leukemia) was over 100 µM.
